In patent publication US20090252814A1, “USE OF XENON FOR ORGAN PROTECTION” (priority 2005, published 2009):

Tests used:
HIF-1α = HIF-1α expression in neonatal rat brain after xenon (immunohistochemistry and western blot); type: in vivo, Sprague Dawley rats
Description: Studies were performed on Sprague Dawley, 7 day old rats. All procedures were approved by the Home Office.
The rats were exposed to 75% xenon for two hours. The xenon gas was administered to the rats by inhalation. The brains of said rats were then harvested, as described below, between 0-24 hours after exposure to the xenon gas.
Paraffin sections (4 μm) were dewaxed in xylene, rehydrated in a series of ethanol washes, and placed in distilled water before staining procedures. Slides were coated with 3-aminopropyl-tri-ethoxysylane.
For detection of HIF isoforms, monoclonal mouse anti-human HIF-1α antibody (67; Novus Biologicals, Littleton, Colo.) and polyclonal rabbit anti-mouse HIF-2α antibodies (PM8 and PM9, obtained from two different rabbits immunised with a peptide containing amino acids 337 to 439 of mouse HIF-2) were used. PM8 and PM9 were provided by Prof. P H Maxwell, Renal Section, Imperial College London, Hammersmith Campus, Du Cane Road, London, W12 ONN. Specific staining of each HIF-isoform was confirmed in immunoblots by using in vitro transcribed and translated mouse HIF-1 and HIF-2 (TnT T7; Promega, Madison, Wis.) and homogenates of rat endothelial cells.
For immunohistochemical analyses, antibody 67 was used at a dilution of 1:6000 and antibodies PM8 and PM9 were used at dilutions of 1:3000.
Detection of bound antibodies was performed by using biotinylated secondary anti-mouse or anti-rabbit antibodies and a catalysed signal amplification system (Dako, Hamburg, Germany) based on the streptavidin-biotin-peroxidase reaction, according to the instructions provided by the manufacturer. Antigen retrieval was performed for 90 seconds in preheated Dako target retrieval solution, using a pressure cooker. All incubations were performed in a humidified chamber. Between incubations, specimens were washed two to four times in buffer (50 mM Tris-HCl, 300 mM NaCl, 0.1% Tween-20, pH 7.6). […]

HIF-1α gene = assay: HIF-1α RNA expression in adult mice brains (RT-PCR); type: in vivo, C57BL/6J mice; conditions: 75% xenon and 25% oxygen 2 h, harvested 0-72 h after
Description: Studies were performed on 8- to 12-wk-old C57BL/6J mice (Jackson Labs, Bar Harbor, Me.) that were fed a standard laboratory diet. All procedures were approved by the Home Office.
The mice were exposed to 75% xenon and 25% oxygen for two hours. The xenon gas was administered to the mice by inhalation. The brains of said adult mice were then harvested as described below between 0-72 hours after exposure to the xenon gas.
Total RNA was extracted as described in Example 4. In addition RT-PCR was carried out as described in Example 4. The primers used for the PCR amplifications were: […]

erythropoietin (EPO) = assay: EPO RNA expression in neonatal rat brain (RT-PCR); type: in vivo, Sprague Dawley rats; conditions: neonatal rat brains, 75% xenon 2 h, harvested 0-24 h after
Description: Neonatal rats (7 days) Sprague Dawley rats were used. All procedures were approved by the Home Office.
C=Rat hippocampal brain control stored in −80° C. 0=Rat hippocampal brain treated with xenon for 2 hrs, sacrificed immediately after and stored in −80° C. 2=Rat hippocampal brain treated with xenon for 2 hrs, sacrificed 2 hrs later and stored in −80° C. 4=Rat hippocampal brain treated with xenon for 2 hrs, sacrificed 4 hrs later and stored in −80° C. 8=Rat hippocampal brain treated with xenon for 2 hrs, sacrificed 8 hrs later and stored in −80° C. 24=Rat hippocampal brain treated with xenon for 2 hrs, sacrificed 24 hrs later and stored in −80° C. P2=Rat hippocampal brain positive control with ischaemia injury for 45 mins, harvested after 24 hrs, stored in −80° C.
Total RNA was extracted from neonatal rat brains.
Reverse transcription of the RNA in order to obtain the first-strand cDNA was carried out using techniques well known in the art. […]
The resulting PCR amplification products were electrophoresed on a 1×TAE agarose gel in 1×TAE buffer and visualised using Fluor-S MultiImager BIORAD. […] As the level of fluorescence is approximately proportional to the amount of intercalated ethidium bromide, the abundance of amplified DNA within samples can be compared; in other words, the level of expression of a gene of interest can be determined. […]

[1] = in combination with oxygen; cited from earlier work

SMILES: [Xe] [xenon]
- expression of HIF-1α and HIF-1β in pyramidal cells in the hippocampus (HIF-1α; 6 hours after exposure to 75% xenon, immunohistochemistry): induces expression
- HIF-1α positive cells in cortex (HIF-1α; 6 hrs after 2 h exposure to 75% xenon, immunohistochemistry): clearly detected
- HIF-1α expression in the brain (HIF-1α; 7 day old rats, 75% xenon 2 h, brains harvested 0-24 h after, western blot): time-dependent increase
- transcription of the HIF-1α gene (HIF-1α gene): does not modulate
- EPO expression (RNA) (erythropoietin (EPO)): time-dependent increase
- concentrations exhibiting anaesthetic effects [1]: 10-70 vol. %
